Where two headings read alike, the source gives them in different places.
Assays:
[1] = target: T1, ABCB1 (Homo sapiens, UniProt P08183); test: ABCB1-ATPase activation assay (baseline), Sf9 membranes; assay type: biochemical; parameters: purchased Solvo Biotechnology (Szeged, Hungary); host or cells: Sf9 insect cell membranes
Procedure: (§1) The drug efflux function of ABCB1 is linked to hydrolysis of ATP by ATPase, which is stimulated in the presence of ABCB1 substrates. In the activation assay, transported substrates can stimulate baseline vanadate-sensitive ATPase activity, whereas in the inhibition assay, which is carried out in the presence of a known activator of the transporter, inhibitors may reduce the maximal vanadate-sensitive ATPase activity. ATPase activity was measured by assessing the amount of phosphate liberated from ATP by the ABCB1 transporter using the […] ATPase kit for ABCB1 according to the manufacturer’s instructions. For this purpose, Sf9 cell membranes (4 µg protein per well) were mixed with each of the test compounds (singly) in solutions with concentrations ranging from 140 nM to 300 µM, then incubated at 37°C for 10 min in the presence or absence of 1.2 mM sodium orthovanadate. The reaction was started by adding 10 mM ATP solution (magnesium salt) to the reaction mixture, stopped 10 min later, and the absorbance at 590 nm was measured after a further 30 min incubation (GeniosPlus apparatus; Tecan, Männedorf, Switzerland). The ATPase activity in each sample was determined as the difference in liberated amounts of phosphate measured in the presence and absence of 1.2 mM sodium orthovanadate. Phosphate standards were prepared in each plate and verapamil served as a positive control for ABCB1 stimulation. The results are expressed as vanadate-sensitive ATPase activities.

[2] = system: HepG2 cells; test: XTT cytotoxicity, CDKi + DNR combination (Chou-Talalay); assay type: cell-based, human; conditions: HepG2, 72 h; for Fa values for synergism of combination with DNR: constant ratio
Procedure: (§2) 1×10^4 MDCKII-ABCB1, 1×10^4 MDCKII parent, 2×10^4 HCT-8, or 2×10^4 HepG2 cells were grown in 96-well culture plates and incubated for 24 h. Individual CDKi diluted with growth medium were added to the exponentially growing cells and the resulting mixtures were incubated for 72 h at 37°C, 5% CO2. Cytotoxicity was then assessed using the XTT assay as follows: cells were incubated with 0.167 mg/mL XTT and 4 µM PMS in Opti-MEM for 2 h. The absorbance of the soluble formazan released was measured at 470 nm on a microplate reader (Tecan, Männedorf, Switzerland).
(§3) The combination index (CI) method of Chou-Talalay, based on the median-effect equation, was used to calculate combined drug effects. This approach offers quantitative definitions for additive, synergistic and antagonistic effects (CI values of 0.9–1.1, <0.9, and >1.1, respectively). Combination experiments were performed in a constant-ratio experimental design as recommended for the most efficient data analysis, and the generated data were used to quantify dose-reduction indices (DRI) for pairs of the tested drugs. DRI represents the fold-change of a focal effect when individual agents are used simultaneously relative to their separate effects, and their activity is synergistic if DRI > 1. […] The data acquired from these drug combination experiments were analyzed using CompuSyn ver. 3.0.1 software (ComboSyn Inc., Paramus, NJ, USA).

[3] = system: ABCG2; parameters: method as in PMID 22173067, PMID 24116053; conditions: in vitro and in situ; cited from earlier work
[4] = target: T1, ABCB1; test: HOE (Hoechst 33342) accumulation in MDCKII-ABCB1 cells; assay type: cell-based; parameters: expressed in transfected cells; host or cells: MDCKII (canine kidney) cells transduced with human ABCB1, from Prof; Piet Borst and Dr. Alfred Schinkel (The Netherlands Cancer Institute); conditions: human, probe Hoechst 33342 (HOE), 8 µM, CDKi applied at their respective IC50 concentrations, % as strongly as LY, read-out: Inhibition of HOE efflux relative to LY
Procedure: (§4) To investigate the inhibitory activity of CDKi on ABCB1, the intracellular accumulation of HOE, a fluorescent ABCB1 substrate, was examined in both MDCKII-ABCB1 and MDCKII parent cell lines in the presence and absence of the tested compounds. The reduction in fluorescence intensity in ABCB1-transduced cells indicates the efflux activity of the ABCB1 transporter, its inhibition increases HOE accumulation and thus the intracellular fluorescence.
(§5) The assay was conducted as previously described and optimized for application in ABCB1-expressing cells. Briefly, MDCKII-ABCB1 and MDCKII parent cells were seeded at 5×10^4 cells per well on a 96-well culture plate and used for accumulation experiments after 24 h cultivation. The medium was removed and cells were washed twice with prewarmed phosphate buffered saline (PBS) at pH 7.4.

[5] = system: HCT-8 cells; test: XTT cytotoxicity, CDKi + DNR combination (Chou-Talalay); conditions: HCT-8, 72 h; for Fa at which combination with DNR shows synergistic cytotoxic effects: constant ratio
Procedure: as §2, §3

[6] = target: T2, ABCB1 transporter (Homo sapiens, UniProt P08183); test: DNR accumulation in MDCKII-ABCB1 cells (flow cytometry), normalized to parental MDCKII; assay type: cell-based; conditions: 20 µM CDKi, 2 µM DNR
T2 construct: expressed in transfected cells; host or cells: MDCKII (canine kidney) cells transduced with human ABCB1, from Prof; Piet Borst and Dr. Alfred Schinkel (The Netherlands Cancer Institute)
Procedure: Briefly, MDCKII-ABCB1 and MDCKII parent cells were seeded at 1.5×10^5 cells per well on a 12-well plate 24 h before the experiment. The medium was removed and the cells were washed with prewarmed PBS. The cells were then preincubated in Opti-MEM, with or without CDKi or LY at 37°C in 5% CO2 for 30 min. […] Accumulation was stopped by cooling the samples on ice, removing the medium and washing twice with ice-cold PBS. The cells were then detached from the plates with 10× trypsin-EDTA, resuspended in PBS with 2% FBS and transferred to Eppendorf tubes, which were placed on ice until analysis. […] The median fluorescence (MF) intensity of 10,000 measured cells was used to compare the fluorescence resulting from each of the treatments. […] The MF intensity of untreated cells was subtracted from fluorescence values obtained for all the measured samples.
To quantify the inhibitory effect of each tested compound on the ABCB1 transporter in the MDCKII-ABCB1 cell line, the ratio between the MF intensity with or without inhibitor was calculated and normalized to the effect in the parental MDCKII cell line according to the following equation [30]: [drawing 1]

[7] = system: MDCKII-ABCB1 cells; test: XTT cytotoxicity, CDKi + DNR combination (Chou-Talalay); assay type: cell-based
Procedure: as §2, §3

[8] = system: MDCKII parent cells; test: as above; assay type: cell-based; conditions: 72 h; for Fa above which combination with DNR is synergistic: constant ratio
Procedure: as §2, §3

[9] = target: T1, ABCB1; test: ABCB1-ATPase inhibition assay (verapamil-stimulated), Sf9 membranes; assay type: biochemical; parameters: purchased Solvo Biotechnology (Szeged, Hungary); host or cells: Sf9 insect cell membranes; conditions: 140 nM to 300 µM
Procedure: as §1

[10] = target: T2, ABCB1 transporter; test: HOE (Hoechst 33342) accumulation in MDCKII-ABCB1 cells; assay type: cell-based; conditions: 8 µM HOE, end-point fluorescence at 30 min, 50% of each compound's own maximum inhibitory activity, read-out: IC50, inhibition of ABCB1-mediated efflux of HOE
Procedure: as §4, §5

[11] = CDKi combined with DNR at constant ratio
[12] = MDCKII-ABCB1, 72 h, CDKi combined with DNR at constant ratio

T1 sequence (P08183 whole entry): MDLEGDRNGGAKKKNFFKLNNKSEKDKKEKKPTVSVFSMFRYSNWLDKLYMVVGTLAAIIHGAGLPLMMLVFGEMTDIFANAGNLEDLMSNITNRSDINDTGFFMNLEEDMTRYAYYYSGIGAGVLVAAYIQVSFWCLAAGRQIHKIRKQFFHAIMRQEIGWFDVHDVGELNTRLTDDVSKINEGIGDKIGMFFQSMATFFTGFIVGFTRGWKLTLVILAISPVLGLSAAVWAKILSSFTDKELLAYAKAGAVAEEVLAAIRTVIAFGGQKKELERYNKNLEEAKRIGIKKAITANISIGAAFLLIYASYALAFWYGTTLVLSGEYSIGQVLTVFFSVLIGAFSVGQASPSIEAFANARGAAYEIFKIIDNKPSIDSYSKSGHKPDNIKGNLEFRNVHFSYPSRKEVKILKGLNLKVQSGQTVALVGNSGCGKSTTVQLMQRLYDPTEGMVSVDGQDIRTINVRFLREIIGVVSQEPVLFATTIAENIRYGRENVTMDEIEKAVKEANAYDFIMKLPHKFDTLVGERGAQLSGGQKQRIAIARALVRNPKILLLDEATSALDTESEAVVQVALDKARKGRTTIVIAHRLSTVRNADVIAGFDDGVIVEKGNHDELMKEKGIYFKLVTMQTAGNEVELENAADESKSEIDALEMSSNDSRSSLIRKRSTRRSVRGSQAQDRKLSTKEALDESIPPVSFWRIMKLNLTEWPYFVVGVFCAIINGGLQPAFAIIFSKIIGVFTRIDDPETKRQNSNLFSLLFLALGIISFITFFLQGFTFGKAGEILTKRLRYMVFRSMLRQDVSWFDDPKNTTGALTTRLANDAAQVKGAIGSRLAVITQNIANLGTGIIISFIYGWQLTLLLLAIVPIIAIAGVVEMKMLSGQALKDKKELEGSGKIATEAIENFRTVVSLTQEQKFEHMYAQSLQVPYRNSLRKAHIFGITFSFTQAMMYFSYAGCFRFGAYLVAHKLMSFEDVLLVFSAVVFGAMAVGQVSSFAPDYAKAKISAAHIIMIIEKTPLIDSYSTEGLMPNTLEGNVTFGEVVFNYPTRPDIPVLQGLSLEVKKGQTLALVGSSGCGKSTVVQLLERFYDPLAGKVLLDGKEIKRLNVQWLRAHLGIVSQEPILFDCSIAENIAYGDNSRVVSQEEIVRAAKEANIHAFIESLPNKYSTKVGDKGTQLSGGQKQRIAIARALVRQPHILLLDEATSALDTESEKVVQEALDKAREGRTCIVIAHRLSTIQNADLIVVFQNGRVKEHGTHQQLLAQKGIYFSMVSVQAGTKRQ
T2 sequence (P08183 whole entry): as above

Structure (SMILES) | Fa values for synergism of combination with DNR [2] | DRI at Fa 0.9, drug II (CDKi) [2, 11] | inhibition at 30 min [4] [%] | Fa at which combination with DNR shows synergistic cytotoxic effects [5] | DRI at Fa 0.75, drug II (CDKi) [5, 11] | DRI at Fa 0.9, drug II (CDKi) [5, 11] | ABCB1 inhibition (DNR efflux) [6] | DRI at Fa 0.75, drug II (CDKi) [8, 11] | DRI at Fa 0.9, drug II (CDKi) [8, 11] | Fa above which combination with DNR is synergistic [8] | Effect on verapamil-stimulated vanadate-sensitive ATPase activity of ABCB1 [9] | IC50 [10] [µM] | also measured
CC(C)[C@H](CO)Nc1nc(Nc2cccc(Cl)c2)c2ncn(C(C)C)c2n1 [purvalanol A] | 0.9 | 1.68±0.03 | 86 | > 0.75 | 1.77±0.01 | 1.68±0.05 | significant (P<0.05) ABCB1 inhibition | 2.40±0.04 | 2.39±0.06 | exceeded 0.4 | considerably and dose-dependently reduced | 12.1 | ABCB1 substrate classification ([1]; from ATPase activity in Sf9 membranes overexpressing human ABCB1): non-substrates of ABCB1; ABCG2 inhibition [3]: can inhibit ABCG2 in vitro and in situ; Combination index (CI) category, combination with DNR ([7]; MDCKII-ABCB1, 72 h, constant ratio): synergistic category of drug combination effects across almost the whole fraction of cells affected (Fa) range; DRI at Fa 0.5, drug II (CDKi) [7, 12]: 4.03±0.08; DRI at Fa 0.75, drug II (CDKi) [7, 12]: 3.73±0.06; DRI at Fa 0.9, drug II (CDKi) [7, 12]: 3.45±0.04; DRI at Fa 0.5, drug II (CDKi) [8, 11]: 2.41±0.03
CC[C@H](CO)Nc1nc(NCc2ccccc2)c2ncn(C(C)C)c2n1 [roscovitine] | 0.65 | 2.56±0.02 | 57 | > 0.3 | 2.29±0.03 | 2.11±0.06 | significant (P<0.05) ABCB1 inhibition | 2.29±0.05 | 2.37±0.06 | > 0.45 | considerably and dose-dependently reduced | 10.3 | Effect on baseline vanadate-sensitive ATPase activity of ABCB1 ([1]; activation assay, 140 nM to 300 µM): increased the baseline vanadate-sensitive ATPase activity; DRI at Fa 0.75, drug II (CDKi) [2, 11]: 2.51±0.02; DRI at Fa 0.5, drug II (CDKi) [5, 11]: 2.49±0.02; DRI at Fa 0.75, drug II (CDKi) [7]: 3.08±0.02; DRI at Fa 0.9, drug II (CDKi) [7]: 2.96±0.03

From article PMC3871618 (PLoS ONE, 2013)
